Laboratory results as given in ChEMBL document CHEMBL3885881, “DrugMatrix”.

Species on record: Rattus norvegicus
Assay: DrugMatrix - Regimen: Daily Repeat
Assay type: toxicity, organism-based, Sprague-Dawley
Set-up: regimen Daily Repeat, gender Male, age 6-8 weeks
Settings: in vivo, po, route oral GAVAGE, vehicle .5 % CMC; for ABSOLUTE BASOPHIL / ABSOLUTE EOSINOPHIL / ABSOLUTE LYMPHOCYTE / ABSOLUTE MONOCYTE / ABSOLUTE SEGMENTED NEUTROPHIL / BASOPHIL / EOSINOPHIL / ERYTHROCYTE COUNT / HEMATOCRIT / HEMOGLOBIN / LEUKOCYTE COUNT / LYMPHOCYTE / MEAN CORPUSCULAR HEMOGLOBIN / MEAN CORPUSCULAR HEMOGLOBIN CONCENTRATION / MEAN CORPUSCULAR VOLUME / MONOCYTE / NEUTROPHIL / NUCLEATED RED BLOOD CELLS / PLATELET COUNT: tissue Blood; for ALANINE AMINOTRANSFERASE / ALBUMIN / ALKALINE PHOSPHATASE / ASPARTATE AMINOTRANSFERASE / BLOOD UREA NITROGEN / CARBON DIOXIDE / CHLORIDE / CHOLESTEROL / CREATINE PHOSPHOKINASE / CREATININE / GLUCOSE / LACTATE DEHYDROGENASE / LIPASE / PHOSPHORUS / POTASSIUM / SODIUM / TOTAL BILIRUBIN / TOTAL PROTEIN / URIC ACID: tissue Plasma
[1] = 0 mg/kg, 72 h, dose level Control, time 3 day
[2] = 0 mg/kg, 120 h, dose level Control, time 5 day
[3] = 250 mg/kg, 72 h, dose level High, time 3 day

SMILES: C#C[C@]1(O)CC[C@H]2[C@@H]3CCc4cc(OC)ccc4[C@H]3CC[C@@]21C [MESTRANOL]
- ABSOLUTE BASOPHIL [1]: 0 CELLS/uL
- ABSOLUTE EOSINOPHIL [1]: 0 CELLS/uL
- ABSOLUTE LYMPHOCYTE [1]: 12269.67 CELLS/uL
- ABSOLUTE MONOCYTE [1]: 160.33 CELLS/uL
- ABSOLUTE SEGMENTED NEUTROPHIL [1]: 970 CELLS/uL
- BASOPHIL [1]: 0%
- EOSINOPHIL [1]: 0%
- ERYTHROCYTE COUNT [1]: 5.76 x10E6/uL
- HEMATOCRIT [1]: 36.57%
- HEMOGLOBIN [1]: 14.22 G/DL
- LEUKOCYTE COUNT [1]: 13.4 x10E3/uL
- LYMPHOCYTE [1]: 91.67%
- MEAN CORPUSCULAR HEMOGLOBIN [1]: 24.67 pg
- MEAN CORPUSCULAR HEMOGLOBIN CONCENTRATION [1]: 38.85 G/DL
- MEAN CORPUSCULAR VOLUME [1]: 63.52 fL
- MONOCYTE [1]: 1.17%
- NEUTROPHIL [1]: 7.17%
- NUCLEATED RED BLOOD CELLS [1]: 0.33 /100WBC
- PLATELET COUNT [1]: 1250.83 x10E3/uL
- ALANINE AMINOTRANSFERASE [1]: 49.17 u/L
- ALBUMIN [1]: 4.33 G/DL
- ALKALINE PHOSPHATASE [1]: 378.5 u/L
- ASPARTATE AMINOTRANSFERASE [1]: 82.17 u/L
- BLOOD UREA NITROGEN [1]: 15 mg/dL
- CARBON DIOXIDE [1]: 34.33 mmol/L
- CHLORIDE [1]: 99.17 MEQ/L
- CHOLESTEROL [1]: 71.17 mg/dL
- CREATINE PHOSPHOKINASE [1]: 258.67 u/L
- CREATININE [1]: 0.18 mg/dL
- GLUCOSE [1]: 142.67 mg/dL
- LACTATE DEHYDROGENASE [1]: 154.33 u/L
- LIPASE [1]: 9 u/L
- PHOSPHORUS [1]: 11.67 mg/dL
- POTASSIUM [1]: 7.13 MEQ/L
- SODIUM [1]: 142.22 MEQ/L
- TOTAL BILIRUBIN [1]: 0.18 mg/dL
- TOTAL PROTEIN [1]: 5.77 G/DL
- URIC ACID [1]: 1.55 mg/dL
- ABSOLUTE BASOPHIL [2]: 0 CELLS/uL
- ABSOLUTE EOSINOPHIL [2]: 23.33 CELLS/uL
- ABSOLUTE LYMPHOCYTE [2]: 14943.67 CELLS/uL
- ABSOLUTE MONOCYTE [2]: 32 CELLS/uL
- ABSOLUTE SEGMENTED NEUTROPHIL [2]: 1084.33 CELLS/uL
- BASOPHIL [2]: 0%
- EOSINOPHIL [2]: 0.17%
- ERYTHROCYTE COUNT [2]: 5.71 x10E6/uL
- HEMATOCRIT [2]: 35.28%
- HEMOGLOBIN [2]: 14.27 G/DL
- LEUKOCYTE COUNT [2]: 16.08 x10E3/uL
- LYMPHOCYTE [2]: 93%
- MEAN CORPUSCULAR HEMOGLOBIN [2]: 25.02 pg
- MEAN CORPUSCULAR HEMOGLOBIN CONCENTRATION [2]: 40.43 G/DL
- MEAN CORPUSCULAR VOLUME [2]: 61.82 fL
- MONOCYTE [2]: 0.17%
- NEUTROPHIL [2]: 6.67%
- NUCLEATED RED BLOOD CELLS [2]: 0.33 /100WBC
- PLATELET COUNT [2]: 1274 x10E3/uL
- ALANINE AMINOTRANSFERASE [2]: 54.17 u/L
- ALBUMIN [2]: 4.22 G/DL
- ALKALINE PHOSPHATASE [2]: 373.17 u/L
- ASPARTATE AMINOTRANSFERASE [2]: 81.83 u/L
- BLOOD UREA NITROGEN [2]: 16.67 mg/dL
- CARBON DIOXIDE [2]: 30.33 mmol/L
- CHLORIDE [2]: 99 MEQ/L
- CHOLESTEROL [2]: 71 mg/dL
- CREATINE PHOSPHOKINASE [2]: 273.5 u/L
- CREATININE [2]: 0.22 mg/dL
- GLUCOSE [2]: 141.83 mg/dL
- LACTATE DEHYDROGENASE [2]: 153.67 u/L
- LIPASE [2]: 10.33 u/L
- PHOSPHORUS [2]: 11.38 mg/dL
- POTASSIUM [2]: 7.08 MEQ/L
- SODIUM [2]: 142.75 MEQ/L
- TOTAL BILIRUBIN [2]: 0.18 mg/dL
- TOTAL PROTEIN [2]: 6.1 G/DL
- URIC ACID [2]: 1.67 mg/dL
- ABSOLUTE BASOPHIL [3]: 0 CELLS/uL
- ABSOLUTE EOSINOPHIL [3]: 55.33 CELLS/uL
- ABSOLUTE LYMPHOCYTE [3]: 13434.33 CELLS/uL
- ABSOLUTE MONOCYTE [3]: 105 CELLS/uL
- ABSOLUTE SEGMENTED NEUTROPHIL [3]: 1338.67 CELLS/uL
- BASOPHIL [3]: 0%
- EOSINOPHIL [3]: 0.33%
- ERYTHROCYTE COUNT [3]: 5.62 x10E6/uL
- HEMATOCRIT [3]: 34.97%
- HEMOGLOBIN [3]: 13.77 G/DL
- LEUKOCYTE COUNT [3]: 14.93 x10E3/uL
- LYMPHOCYTE [3]: 89.67%
- MEAN CORPUSCULAR HEMOGLOBIN [3]: 24.5 pg
- MEAN CORPUSCULAR HEMOGLOBIN CONCENTRATION [3]: 39.37 G/DL
- MEAN CORPUSCULAR VOLUME [3]: 62.23 fL
- MONOCYTE [3]: 0.67%
- NEUTROPHIL [3]: 9.33%
- NUCLEATED RED BLOOD CELLS [3]: 0 /100WBC
- PLATELET COUNT [3]: 1230 x10E3/uL
- ALANINE AMINOTRANSFERASE [3]: 46.67 u/L
- ALBUMIN [3]: 4.03 G/DL
- ALKALINE PHOSPHATASE [3]: 693.33 u/L
- ASPARTATE AMINOTRANSFERASE [3]: 67.67 u/L
- BLOOD UREA NITROGEN [3]: 10.33 mg/dL
- CARBON DIOXIDE [3]: 32 mmol/L
- CHLORIDE [3]: 102.67 MEQ/L
- CHOLESTEROL [3]: 11.33 mg/dL
- CREATINE PHOSPHOKINASE [3]: 168.67 u/L
- CREATININE [3]: 0.16 mg/dL
- GLUCOSE [3]: 157 mg/dL
- LACTATE DEHYDROGENASE [3]: 250.33 u/L
- LIPASE [3]: 7.33 u/L
- PHOSPHORUS [3]: 11.57 mg/dL
- POTASSIUM [3]: 6.36 MEQ/L
- SODIUM [3]: 145.73 MEQ/L
- TOTAL BILIRUBIN [3]: 0.23 mg/dL
- TOTAL PROTEIN [3]: 5.73 G/DL
